According to the supplement of paper PMC10627819:

Columns and labels:
S. aureus DSM 20231 [1] = experiment: fitness (endpoint OD595 vs no drug) (fraction); higher = more growth
How it was run: (§1)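 Volumes were 30 µl per well, or 55 µl for S. pneumoniae, in 384-well plates inoculated at OD595 0.01. Media were TSB, LB Lennox or CY at 37 °C, and OD595 was read every 30 min for 14 h with first-reading background subtraction. Fitness is the ratio of optical density at stationary-phase entry to the robust mean of no-drug controls. That ratio is capped at 1.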

B. subtilis 168 [2] = experiment: as above
How it was run: as §1

S. pneumoniae D39V [3] = experiment: as above
How it was run: as §1

S. aureus DSM 20231 [4] = experiment: Bliss interaction score (quartile over a dose matrix) (fitness difference); higher = more antagonism (negative = synergy)
How it was run: (§2)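 The Bliss score is observed minus expected fitness, where expected fitness is the product of the single-drug fitness values inferred from the combination data. Fitness is the OD595 at the onset of stationary phase over the plate's robust no-drug mean, capped at 1. Scores are summarised by quartiles over technical, biological and donor/recipient replicates.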

S. aureus Newman = experiment: as above
How it was run: as §2

B. subtilis 168 [5] = experiment: as above
How it was run: as §2

S. pneumoniae D39V [6] = experiment: as above
How it was run: as §2
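Wherever Bliss interaction score (quartile over a dose matrix) is given: first quartile when negative (synergy) and third quartile when positive (antagonism).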

CC(=O)NC[C@H]1CN(c2ccc(N3CCOCC3)c(F)c2)C(=O)O1 [Linezolid] + Cc1cc(NS(=O)(=O)c2ccc(N)cc2)no1 [Sulfamethoxazol]
fitness
Conditions | first compound 0.105 µg/mL | first compound 0.125 µg/mL | first compound 0.21 µg/mL | first compound 0.25 µg/mL | first compound 0.42 µg/mL | first compound 0.5 µg/mL
B. subtilis 168 [2], partner 1 µg/mL | – | 0.606 | – | 0.2 | – | 0.0228
B. subtilis 168 [2], partner 2 µg/mL | – | 0.525 | – | 0.13 | – | 0.0265
B. subtilis 168 [2], partner 4 µg/mL | – | 0.515 | – | 0.0743 | – | 0.0275
S. aureus DSM 20231 [1], partner 1 µg/mL | – | 0.844 | – | 0.55 | – | 0.167
S. aureus DSM 20231 [1], partner 2 µg/mL | – | 0.865 | – | 0.533 | – | 0.161
S. aureus DSM 20231 [1], partner 4 µg/mL | – | 0.852 | – | 0.557 | – | 0.186
S. pneumoniae D39V [3], partner 1 µg/mL | 0.774 | – | 0.688 | – | 0.463 | –
S. pneumoniae D39V [3], partner 2 µg/mL | 0.772 | – | 0.71 | – | 0.48 | –
S. pneumoniae D39V [3], partner 4 µg/mL | 0.821 | – | 0.729 | – | 0.48 | –

fitness, one replicate
Conditions | partner 0.5 µg/mL | partner 1 µg/mL | partner 2 µg/mL | partner 4 µg/mL
B. subtilis 168 [2], first compound 0.0625 µg/mL | – | 0.94 | 0.895 | 0.828
B. subtilis 168 [2], first compound 0.125 µg/mL | 0.858 | – | – | –
B. subtilis 168 [2], first compound 0.25 µg/mL | 0.446 | – | – | –
B. subtilis 168 [2], first compound 0.5 µg/mL | 0.0399 | – | – | –
S. aureus DSM 20231 [1], first compound 1 µg/mL | – | 0.0364 | 0.0289 | 0.0207
S. pneumoniae D39V [3], first compound 0.2 µg/mL | – | 0.777 | 0.817 | 0.726
S. pneumoniae D39V [3], first compound 0.4 µg/mL | – | 0.368 | 0.674 | 0.661
S. pneumoniae D39V [3], first compound 0.8 µg/mL | – | 0.348 | 0.427 | 0.397

Conditions | Bliss interaction score
B. subtilis 168 [5] | -0.0478
S. aureus DSM 20231 [4] | -0.03
S. aureus Newman | 0.0723
S. pneumoniae D39V [6] | -0.0972

CC(=O)NC[C@H]1CN(c2ccc(N3CCOCC3)c(F)c2)C(=O)O1 [Linezolid] + Cc1ncc([N+](=O)[O-])n1CCO [Metronidazole]
Conditions | fitness
B. subtilis 168 [2], first compound 0.125 µg/mL, partner 0.625 µg/mL | 0.648
B. subtilis 168 [2], first compound 0.125 µg/mL, partner 1.25 µg/mL | 0.607
B. subtilis 168 [2], first compound 0.125 µg/mL, partner 2.5 µg/mL | 0.597
B. subtilis 168 [2], first compound 0.25 µg/mL, partner 0.625 µg/mL | 0.0733
B. subtilis 168 [2], first compound 0.25 µg/mL, partner 1.25 µg/mL | 0.0982
B. subtilis 168 [2], first compound 0.25 µg/mL, partner 2.5 µg/mL | 0.105
B. subtilis 168 [2], first compound 0.5 µg/mL, partner 0.625 µg/mL | 0.0494
B. subtilis 168 [2], first compound 0.5 µg/mL, partner 1.25 µg/mL | 0.0531
B. subtilis 168 [2], first compound 0.5 µg/mL, partner 2.5 µg/mL | 0.0511
S. aureus DSM 20231 [1], first compound 0.125 µg/mL, partner 0.625 µg/mL | 0.947
S. aureus DSM 20231 [1], first compound 0.125 µg/mL, partner 1.25 µg/mL | 0.94
S. aureus DSM 20231 [1], first compound 0.125 µg/mL, partner 2.5 µg/mL | 0.942
S. aureus DSM 20231 [1], first compound 0.25 µg/mL, partner 0.625 µg/mL | 0.621
S. aureus DSM 20231 [1], first compound 0.25 µg/mL, partner 1.25 µg/mL | 0.723
S. pneumoniae D39V [3], first compound 0.105 µg/mL, partner 1.25 µg/mL | 0.866
S. pneumoniae D39V [3], first compound 0.105 µg/mL, partner 2.5 µg/mL | 0.877
S. pneumoniae D39V [3], first compound 0.105 µg/mL, partner 5 µg/mL | 0.841
S. pneumoniae D39V [3], first compound 0.2 µg/mL, partner 1.073 µg/mL | 0.832
S. pneumoniae D39V [3], first compound 0.2 µg/mL, partner 2.145 µg/mL | 0.804
S. pneumoniae D39V [3], first compound 0.2 µg/mL, partner 4.29 µg/mL | 0.817
S. pneumoniae D39V [3], first compound 0.21 µg/mL, partner 1.25 µg/mL | 0.776
S. pneumoniae D39V [3], first compound 0.21 µg/mL, partner 2.5 µg/mL | 0.78
S. pneumoniae D39V [3], first compound 0.21 µg/mL, partner 5 µg/mL | 0.753
S. pneumoniae D39V [3], first compound 0.4 µg/mL, partner 1.073 µg/mL | 0.741
S. pneumoniae D39V [3], first compound 0.4 µg/mL, partner 2.145 µg/mL | 0.77
S. pneumoniae D39V [3], first compound 0.4 µg/mL, partner 4.29 µg/mL | 0.714
S. pneumoniae D39V [3], first compound 0.42 µg/mL, partner 1.25 µg/mL | 0.663
S. pneumoniae D39V [3], first compound 0.42 µg/mL, partner 2.5 µg/mL | 0.646
S. pneumoniae D39V [3], first compound 0.42 µg/mL, partner 5 µg/mL | 0.63
S. pneumoniae D39V [3], first compound 0.8 µg/mL, partner 2.145 µg/mL | 0.445
S. pneumoniae D39V [3], first compound 0.8 µg/mL, partner 4.29 µg/mL | 0.424

fitness, one replicate
Conditions | partner 0.625 µg/mL | partner 1.25 µg/mL | partner 2.5 µg/mL
B. subtilis 168 [2], first compound 0.0625 µg/mL | 0.86 | 0.895 | 0.875
S. aureus DSM 20231 [1], first compound 1 µg/mL | 0.0445 | 0.0462 | 0.042

Conditions | Bliss interaction score
B. subtilis 168 [5] | 0.103
S. aureus DSM 20231 [4] | 0.111
S. aureus Newman | 0.0844
S. pneumoniae D39V [6] | 0.143
